Legend:
Format in all cases: in vivo
[1] = system: transplanted rice plant; assay: Test Example 1: effect on crop, application before weed generation in submerged conditions (symbol a); conditions: application herbicide amount 320 g/ha
Summary of the method: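 Alluvial soil pots flooded to 4 cm water, sown with Echinochloa oryzacola, Scirpus juncoides and Monochoria vaginalis, then transplanted with 2.5 leaf stage rice seedlings; pre-emergence application. Greenhouse 25° C. to 30° C.; scored 0–5 by herbicidal ratio 3 weeks after application.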

[2] = system: Echinochloa oryzacola Vasing.; assay: Test Example 2: herbicidal activity, application during weed generation in submerged conditions (symbol A); conditions: Table 23; application herbicide amount 320 g/ha; grade 0-5 by criteria of Test Example 1
Summary of the method: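 Seeds sown in flooded alluvial soil (4 cm water) were grown in a 25-30° C greenhouse. At the one- to two-leaf stage, diluted emulsion of compound was applied to the water surface at a predetermined rate. Effect was scored 3 weeks later.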

[3] = system: Leptochloa chinensis; assay: Test Example 3: herbicidal effect by foliage application, Wagner pot (symbol D); conditions: application herbicide amount 320 g/ha
Summary of the method: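 Plants sown in submerged alluvial soil (water depth 0.1–0.5 cm) in a 25–30 °C greenhouse and grown 14 days. An emulsion of the compound diluted in water to a set herbicide amount was sprayed uniformly on foliage. Effect on each plant scored 3 weeks after application.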

[4] = system: Digitaria ciliaris; assay: Test Example 4: herbicidal effect by soil treatment (symbol F); conditions: application herbicide amount 320 g/ha
Summary of the method: (§1)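 Seeds were sown in sterilized diluvial soil, covered with about 1.5 cm of soil, and the soil surface was sprayed with a water-diluted emulsion of the compound at a predetermined rate. Plants grew in a greenhouse at 25° C. to 30° C.; effects were scored visually 3 weeks after application.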

[5] = system: Echinochloa crus-galli var. crus-galli; assay: Test Example 4: herbicidal effect by soil treatment (symbol H); conditions: application herbicide amount 320 g/ha
Summary of the method: as §1

[6] = system: Avena fatua; assay: Test Example 4: herbicidal effect by soil treatment (symbol I); conditions: application herbicide amount 320 g/ha
Summary of the method: as §1

[7] = system: Lolium multiflorum Lam.; assay: Test Example 4: herbicidal effect by soil treatment (symbol K); conditions: application herbicide amount 320 g/ha
Summary of the method: as §1

[8] = system: Setaria viridis; assay: Test Example 5: herbicidal effect by foliage application, plastic box (symbol G); conditions: 320 g/ha, 3 weeks after application
Summary of the method: (§2)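 Seeds were sown in sterilized diluvial soil, covered with about 1.5 cm of soil and grown 14 days in a greenhouse at 25° C. to 30° C. An emulsifiable formulation diluted in water to a set rate was sprayed over foliage, and injury was scored 3 weeks later.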

[9] = system: Avena fatua; assay: Test Example 5: herbicidal effect by foliage application, plastic box (symbol I); conditions: 320 g/ha, 3 weeks after application
Summary of the method: as §2

[10] = system: Veronica persica; assay: Test Example 5: herbicidal effect by foliage application, plastic box (symbol R); conditions: 320 g/ha, 3 weeks after application
Summary of the method: as §2

[11] = system: corn; assay: Test Example 5: effect on crop by foliage application, plastic box (symbol c); conditions: 320 g/ha, 3 weeks after application
Summary of the method: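 Crop and weed seeds sown in spots in sterilized diluvial soil in plastic boxes and covered with about 1.5 cm soil. Plants raised in a greenhouse at 25° C. to 30° C. for foliar application.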

| Structure (SMILES) | Effect grade on crop, a: transplanted rice plant [1] | Herbicidal effect grade, A: Echinochloa oryzacola Vasing. [2] | herbicidal effect on D (Leptochloa chinensis), grade 0-5 [3] | F (Digitaria ciliaris) herbicidal effect grade [4] | H (Echinochloa crus-galli var. crus-galli) herbicidal effect grade [5] | I (Avena fatua) herbicidal effect grade [6] | K (Lolium multiflorum Lam.) herbicidal effect grade [7] | G: Setaria viridis, herbicidal effect grade [8] | I: Avena fatua, herbicidal effect grade [9] | R: Veronica persica, herbicidal effect grade [10] | c: corn, effect on crop grade [11] | Herbicidal effect grade, F: Digitaria ciliaris [4] | Herbicidal effect grade, H: Echinochloa crus-galli var. crus-galli [5] | Herbicidal effect grade, I: Avena fatua [6] | Herbicidal effect grade, K: Lolium multiflorum Lam. [7] | G: Setaria viridis, herbicidal effect (criteria of Test Example 1) [8] | I: Avena fatua, herbicidal effect (criteria of Test Example 1) [9] | R: Veronica persica, herbicidal effect (criteria of Test Example 1) [10] | c: corn, effect on crop (criteria of Test Example 1) [11] |
| --- | --- | --- | --- | --- | --- | --- | --- | --- | --- | --- | --- | --- | --- | --- | --- | --- | --- | --- | --- |
| CON=C(C)C(C(C)=NOC)C1CC(O)=C(c2c(C)cc(C)cc2C)C1=O (stereo not shown) [1-021] | 0 (Herbicidal ratio of 5% or lower (almost no effect)) | 0 (Herbicidal ratio of 5% or lower (almost no effect)) | 0 (Herbicidal ratio of 5% or lower (almost no effect)) | 0 (Herbicidal ratio of 5% or lower (almost no effect)) | 0 (Herbicidal ratio of 5% or lower (almost no effect)) | 0 (Herbicidal ratio of 5% or lower (almost no effect)) | 2 (Herbicidal ratio of 20% or higher and lower than 40%) | 1 (Herbicidal ratio of 5% or higher and lower than 20%) | 0 (Herbicidal ratio of 5% or lower (almost no effect)) | 0 (Herbicidal ratio of 5% or lower (almost no effect)) | 0 (Herbicidal ratio of 5% or lower (almost no effect)) | – | – | – | – | – | – | – | – |
| CCc1cc(Br)cc(C)c1C1=C(O)CC(C(C(C)=O)C(=O)OC)C1=O (stereo not shown) [7-001] | 0 (Herbicidal ratio of 5% or lower (almost no effect)) | 0 (Herbicidal ratio of 5% or lower (almost no effect)) | 5 (Herbicidal ratio of 90% or more (almost completely withered)) | – | – | – | – | – | – | – | – | 5 (Herbicidal ratio of 90% or more (almost completely withered)) | 4 (Herbicidal ratio of 70% or higher and lower than 90%) | 3 (Herbicidal ratio of 40% or higher and lower than 70%) | 5 (Herbicidal ratio of 90% or more (almost completely withered)) | 3 (Herbicidal ratio of 40% or higher and lower than 70%) | 3 (Herbicidal ratio of 40% or higher and lower than 70%) | 0 (Herbicidal ratio of 5% or lower (almost no effect)) | 2 (Herbicidal ratio of 20% or higher and lower than 40%) |
| C#CCON=C(C)CC1CC(O)=C(c2c(C)cc(C)cc2C)C1=O (stereo not shown) [1-019] | 5 (Herbicidal ratio of 90% or more (almost completely withered)) | 5 (Herbicidal ratio of 90% or more (almost completely withered)) | 5 (Herbicidal ratio of 90% or more (almost completely withered)) | 5 (Herbicidal ratio of 90% or more (almost completely withered)) | 5 (Herbicidal ratio of 90% or more (almost completely withered)) | 5 (Herbicidal ratio of 90% or more (almost completely withered)) | 5 (Herbicidal ratio of 90% or more (almost completely withered)) | 5 (Herbicidal ratio of 90% or more (almost completely withered)) | 5 (Herbicidal ratio of 90% or more (almost completely withered)) | 4 (Herbicidal ratio of 70% or higher and lower than 90%) | 5 (Herbicidal ratio of 90% or more (almost completely withered)) | – | – | – | – | – | – | – | – |
| CC(CC1CC(O)=C(c2c(C)cc(C)cc2C)C1=O)=NOCc1ccccc1 (stereo not shown) [1-020] | 5 (Herbicidal ratio of 90% or more (almost completely withered)) | 5 (Herbicidal ratio of 90% or more (almost completely withered)) | 5 (Herbicidal ratio of 90% or more (almost completely withered)) | 5 (Herbicidal ratio of 90% or more (almost completely withered)) | 5 (Herbicidal ratio of 90% or more (almost completely withered)) | 4 (Herbicidal ratio of 70% or higher and lower than 90%) | 5 (Herbicidal ratio of 90% or more (almost completely withered)) | 5 (Herbicidal ratio of 90% or more (almost completely withered)) | 4 (Herbicidal ratio of 70% or higher and lower than 90%) | 4 (Herbicidal ratio of 70% or higher and lower than 90%) | 1 (Herbicidal ratio of 5% or higher and lower than 20%) | – | – | – | – | – | – | – | – |
| C=CCON=C(C)CC1CC(O)=C(c2c(C)cc(C)cc2C)C1=O (stereo not shown) [1-018] | 5 (Herbicidal ratio of 90% or more (almost completely withered)) | 5 (Herbicidal ratio of 90% or more (almost completely withered)) | 5 (Herbicidal ratio of 90% or more (almost completely withered)) | 5 (Herbicidal ratio of 90% or more (almost completely withered)) | 5 (Herbicidal ratio of 90% or more (almost completely withered)) | 4 (Herbicidal ratio of 70% or higher and lower than 90%) | 5 (Herbicidal ratio of 90% or more (almost completely withered)) | 5 (Herbicidal ratio of 90% or more (almost completely withered)) | 5 (Herbicidal ratio of 90% or more (almost completely withered)) | 4 (Herbicidal ratio of 70% or higher and lower than 90%) | 5 (Herbicidal ratio of 90% or more (almost completely withered)) | – | – | – | – | – | – | – | – |

— patent US11000033B2, “Ketone or oxime compound, and herbicide” (NISSAN CHEMICAL CORPORATION, priority 2014, dated 2021)
